Measurements published in article PMC4443670, “The C-terminal region of the motor protein MCAK controls its structure and activity through a conformational switch” (eLife, 2015).
Entries after “also recorded” stand apart in the source; their conditions may differ. Ends that are not written are not given here.

Tests used:
[1] = test system: MCAK motor domain (His-M, His-NM); experiment: Resin-based (glutathione agarose) GST pull-down binding assay; design: species or system human; settings: GST-CT constructs on glutathione agarose beads; purified His-M / His-NM; Coomassie-stained gel
From the text: Kinesin-1 is regulated through an auto-inhibitory mechanism whereby one C-terminal tail binds at the interface of the two motors, such that it creates a second point of attachment in addition to the coiled coil region. This limits the head movement of one kinesin with respect to the other ([Stock et al., 1999]; [Hackney and Stock, 2000]; [Kaan et al., 2011]). We sought to test whether the C-terminal tail domain of MCAK, which has been proposed to regulate MCAK activity ([Moore and Wordeman, 2004]), was sufficient to interact with the motor domain. To do this, we expressed the N-terminal and motor region (residues 1–583, termed NM) or the motor region of MCAK along with the neck linker region (residues 181–583, termed M) as His-tagged proteins, and the C-terminal MCAK tail (residues 700–725, termed CT domain) as a GST fusion protein ([Moore and Wordeman, 2004]; [Hertzer et al., 2006]) (Figure 1A). […] We cannot however exclude a very tight interaction between two CT domains. […] Together, these experiments reveal that the MCAK CT domain interacts with its catalytic domain in solution.
Figure 4. Sequence requirement for the formation of a motor-CT tail complex. (A) Sequence alignment of the conserved CT domain of MCAK for various species alongside the Drosophila kinesin-13 Klp10A and human Kif2a. The conserved residues are highlighted in red. The three amino acids that are critical for binding to the motor domain are marked with a green star. (B) Sequence alignment of the C terminus of human Kif2a, Kif2b, and MCAK/Kif2c. Amino acid numbering is relative to the Kif2a sequence. The MCAK CT domain binding to the motor domain is boxed in green. The sequences were aligned using the program T-coffee (EBI) and formatted with ESPRIPT ([Gouet et al., 1999]). (C) Coomassie-stained gel showing a resin-based binding assay using glutathione agarose beads for purified His-M, binding to the GST-CT and GST-CT point mutants. (D) Size-exclusion chromatography elution profile of the motor domain alone (red dashes), motor incubated with the CT, CTS715E, CTE711A, E712A domains (cyan, green dashes, and purple, respectively). Bottom, coomassie-stained gel showing the size-exclusion chromatography elution of the motor incubated with the CTS715E and CTE711A, E712A domains (green and purple, respectively). DOI: http://dx.doi.org/10.7554/eLife.06421.008
Protein expression was induced by addition of 0.5 mM IPTG to BL21(DE3) Codon plus cells transformed with respective constructs at OD600 of 0.7–0.8 for 16 hr at 18°C. Cells were lysed by sonication in lysis buffer (50 mM Hepes, pH 7.4, 200 mM NaCl, 1 mM MgCl2, 1 mM PMSF, 1 mg/ml DNaseI, 2 mg/ml lysozyme, 10 mM Imidazole) and clarified at 20,000 rpm for 1 hr at 4°C. His-tagged and GST-tagged proteins were subsequently purified using Ni-NTA–agarose beads and glutathione-sepharose beads, respectively (GE Healthcare Life Sciences, UK)) according to the manufacturer's guidelines. MCAK constructs containing the motor domain were eluted with elution buffer (50 mM Hepes, pH 7.4, 200 mM NaCl, 1 mM MgCl2, 1 mM ATP, and 300 mM imidazole). Cleavage of the GST tag was performed using the GST-3C protease overnight at 4°C. Proteins were further purified using gel filtration chromatography pre-equilibrated in gel filtration buffer (For full-length MCAK: 100 mM HEPES, pH 7.3, 200 mM NaCl, 200 mM KCl, 1 mM DTT, 1 mM MgCl2, 1 mM Na-EGTA, 1 mM ATP; for the motor domain constructs: 50 mM HEPES, pH 7.2, 150 mM NaCl, 1 mM DTT, 1 mM MgCl2, 1 mM Na-EGTA, 1 mM ATP; for CT domain constructs: 50 mM HEPES, pH 7.2, 150 mM NaCl, 1 mM DTT, 1 mM MgCl2, 1 mM Na-EGTA). Analytical gel filtration chromatography was performed using either a Superdex 75 or a Superose 6 10/300 GL column (GE Healthcare, UK). To purify the CT domain alone, we cleaved GST and CT after gel filtration and a concentration step, and performed a glutathione affinity-purification third step to remove the GST and collect the CT domain. […]

[2] = test system: taxol-stabilized microtubules; experiment: Microtubule cosedimentation assay, untreated microtubules; type: binding; settings: 100 nM full-length MCAKS715E, 2 μM taxol-stabilized microtubules, increasing free CT or CTS715E; repeated three times
Method: Full-length MCAK complex was diluted in S buffer (50 mM NaCl, 20 mM Hepes pH 7.0) to 50 nM, in absence of nucleotide to prevent MCAK-dependent microtubule depolymerisation. To assemble an MCAK motor-CT domain complex, 50 nM of the motor domain and 100 nM of the CT domain were used. Microtubule binding assays were performed as described ([Cheeseman et al., 2006]) using equal volumes of taxol-stabilized microtubules in BRB80 and MCAK in S buffer. MCAK was quantified using anti-MCAK antibody against the C terminus of MCAK (709[…]720), generated by GL Biochem (Shangai) Ltd (China) or anti-His antibody to probe for the motor domain alone (GE Healthcare Lifesciences, UK). The data from at least three independent experiments were fitted to a modified Hill equation to determine the apparent Kd.

MCAK motor domain = target: T1, MCAK motor domain (Homo sapiens, UniProt Q99661); experiment: Analytical size-exclusion chromatography (motor-CT complex formation); type: binding; settings: Superdex 75 or Superose 6 10/300 GL; Coomassie-stained gel of fractions
T1 construct: His-MCAK (183–583, M) and His-MCAK (1–583, NM) were subcloned in pET3aTr vector; made in house; host or cells: E. coli BL21(DE3) Codon plus
T1 sequence (Q99661 183-583): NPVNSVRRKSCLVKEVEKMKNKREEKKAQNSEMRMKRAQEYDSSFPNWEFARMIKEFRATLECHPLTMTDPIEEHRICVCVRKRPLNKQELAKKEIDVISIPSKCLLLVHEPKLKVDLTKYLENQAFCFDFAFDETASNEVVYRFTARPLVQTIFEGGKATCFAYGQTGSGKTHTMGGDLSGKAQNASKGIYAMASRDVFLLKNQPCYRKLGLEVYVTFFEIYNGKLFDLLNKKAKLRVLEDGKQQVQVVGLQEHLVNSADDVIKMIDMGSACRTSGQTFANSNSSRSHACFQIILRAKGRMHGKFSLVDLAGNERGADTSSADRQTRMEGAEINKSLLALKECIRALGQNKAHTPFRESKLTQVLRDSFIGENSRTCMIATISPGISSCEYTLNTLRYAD
From the text: Full-length MCAK is a dimer in solution ([Maney et al., 2001]). Therefore, we sought to test whether the CT domain interacts with one or two motor domains. To define the stoichiometry of this interaction, we subjected the complex to analytical size-exclusion chromatography. The motor domain alone behaves as a monomer and eluted with an apparent size of ∼45 kDa. […] Using SDS-PAGE analysis, we confirmed that the shift to a larger complex was due to the interaction of the motor domain with the CT domain (Figure 1C, bottom). […] The predicted masses for complexes of one and two CT domains bound to two motor domains are ∼94.2 and 97.7 kDa, respectively. […] Since the CT domain is unlikely to dimerize alone (Figure 1B), we conclude that the MCAK CT domain induces the dimerization of the motor domains cooperatively.
Protein expression was induced by addition of 0.5 mM IPTG to BL21(DE3) Codon plus cells transformed with respective constructs at OD600 of 0.7–0.8 for 16 hr at 18°C. Cells were lysed by sonication in lysis buffer (50 mM Hepes, pH 7.4, 200 mM NaCl, 1 mM MgCl2, 1 mM PMSF, 1 mg/ml DNaseI, 2 mg/ml lysozyme, 10 mM Imidazole) and clarified at 20,000 rpm for 1 hr at 4°C. His-tagged and GST-tagged proteins were subsequently purified using Ni-NTA–agarose beads and glutathione-sepharose beads, respectively (GE Healthcare Life Sciences, UK)) according to the manufacturer's guidelines. MCAK constructs containing the motor domain were eluted with elution buffer (50 mM Hepes, pH 7.4, 200 mM NaCl, 1 mM MgCl2, 1 mM ATP, and 300 mM imidazole). Cleavage of the GST tag was performed using the GST-3C protease overnight at 4°C. […] Protein concentrations were determined with a combination of Bradford protein assays and densitometry of Coomassie-stained gels relative to a BSA standard. […]

[3] = test system: MCAK motor domain (Cys287); experiment: Covalent (disulphide) attachment of the CT domain to the motor domain; type: binding, human
Method: The GST-CTE712C and CTE712C domains were cross-linked to the motor domain by incubating them with the motor domain in a buffer containing 100 mM HEPES, pH 7.4, 150 mM NaCl but lacking DTT for 1 hr at 4°C. As a negative control the motor domain and the CTE712C domain were incubated in the identical buffer, supplemented with 5 mM DTT.

| Substance | binding to the motor domain of MCAK [1] | other results |
| --- | --- | --- |
| CTE711A, E712A: CT domain point mutant E711A, E712A (VIKALRLAMQLAAQASRQISSKKRPQ; not fully specified) | no longer bound to the motor domain of MCAK |  |
| CTI718A: CT domain point mutant I718A (VIKALRLAMQLEEQASRQASSKKRPQ; not fully specified) | bound robustly |  |
| CTR716A: CT domain point mutant R716A (VIKALRLAMQLEEQASAQISSKKRPQ; not fully specified) | bound robustly |  |
| CTS715E: CT domain point mutant S715E (VIKALRLAMQLEEQAERQISSKKRPQ; left off: GST, end not stated, cleaved) |  | effect of free CT domain on MCAKS715E binding to microtubules [2]: did not interfere with MCAKS715E binding to microtubules; binding to / co-migration with motor domain by gel filtration (MCAK motor domain): did not co-migrate |
| GST-CT: C-terminal MCAK tail (residues 700–725) as a GST fusion protein (VIKALRLAMQLEEQASRQISSKKRPQ; also: GST fusion partner not in chain) | bound to both the NM and M domains of MCAK as a stable complex; also recorded: bound to the motor domain |  |
| GST-CTE712C: cleavable GST fusion of CTE712C domain (VIKALRLAMQLECQASRQISSKKRPQ; also: GST fusion partner not in chain) |  | efficiency of disulphide bridge formation with motor domain ([3]; absence of DTT, Coomassie-stained gel): ~50%; formation of covalent complex with motor ([3]; oxidizing conditions (without DTT), 100 mM HEPES pH 7.4, 150 mM NaCl, 1 hr at 4°C): formed a covalent complex; binding to / co-migration with motor domain by gel filtration (MCAK motor domain): eluted as a single peak, earlier than the peak for the motor alone |
| GST-CTS715A: GST fusion of CT domain S715A (VIKALRLAMQLEEQAARQISSKKRPQ; also: GST fusion partner not in chain) | bound to the motor domain |  |
| GST-CTS715E: GST fusion of CT domain S715E (VIKALRLAMQLEEQAERQISSKKRPQ; also: GST fusion partner not in chain) | did not interact with the motor domain |  |
